Results taken from US20180140655A1, “AGENT CONTAINING IMIDAZOLE DIPEPTIDE” (THE UNIVERSITY OF TOKYO, priority 2014, published 2018).

Columns and labels:
[1] = Stability at ordinary temperature, under cooking conditions and in solution; assay type: physicochemical; conditions: for stability under cooking conditions: cooking conditions of 180° C. or lower
From the text: The agent, pharmaceutical composition, or nutritional composition of the present invention can be produced by using various known techniques. The step of adjusting concentration of the active ingredient to a predetermined concentration may be performed in various stages of the manufacturing process. Those skilled in the art can appropriately design the steps for producing the agent of the present invention in consideration of solubility, stability, volatility, etc. of the active ingredient. […] It was also confirmed that they can be stably stored over at least 2 years and 9 months in a state of solution.

[2] = cited from earlier work
GABA transporters = assay: Microarray analysis of GABA transporter genes in Alzheimer disease model mice; assay type: in vivo, mouse; conditions: carnosine administration group vs Alzheimer model
Description: (§1) High fat diet (HFD) was given to transgenic mice (Alzheimer disease model mice) to induce cerebral hypofunction. Carnosine (L-histidine-β-alanine) was administered to the mice, and influence of carnosine was evaluated.
(§2) Suppression of cerebral inflammation in the carnosine administration group was also shown by the results of MRI test (FIG. 8-2, red portions). The results of the microarray analysis indicated increase of expressions of GABA transporters such as 7Slc6a12 and slc6a13 observed in the Alzheimer model was suppressed in the carnosine administration group (FIG. 8-3).

[3] = system: transgenic mice (Alzheimer disease model mice); assay: Intracerebral inflammatory reaction by MRI in Alzheimer disease model mice; assay type: in vivo, mouse; conditions: carnosine administration group, high fat diet transgenic mice
Description: as §1, §2

[4] = system: transgenic mice (Alzheimer disease model mice); assay: Blood insulin concentration in Alzheimer disease model mice; assay type: in vivo, mouse; conditions: mice starved overnight; high fat diet-induced Alzheimer disease; p<0.05
Description: as §1
Blood was collected from mice starved overnight, and blood insulin concentration was determined with a kit (Morinaga).

[5] = system: transgenic mice (Alzheimer disease model mice); assay: Blood cytokines in high fat diet Alzheimer disease model mice; assay type: in vivo, mouse; conditions: carnosine-containing diet group
Description: as §1, §2

stability under cooking conditions [1] | stability at an ordinary temperature [1] | Structure (SMILES) | water solubility (in words) [2] | increase of expression of GABA transporter 7Slc6a12 (GABA transporters) | increase of expression of GABA transporter slc6a13 (GABA transporters) | cerebral inflammation (MRI test) [3] | increase of the blood insulin concentration [4] | blood cytokines [5] | water solubility ([2]; at 25° C.) [g/3.1 ml]
sufficiently stable | sufficiently stable | Cn1cncc1C[C@H](NC(=O)CCN)C(=O)O [anserine, (2S)-2-[(3-amino-1-oxopropyl)amino]-3-(3-methyl-4-imidazolyl)ppropanoic acid] | water-soluble | – | – | – | – | – | –
sufficiently stable | sufficiently stable | NCCC(=O)N[C@@H](Cc1cnc[nH]1)C(=O)O [carnosine] | water-soluble | suppressed | suppressed | Suppression | suppressed | decreased | 1
